Measurements taken from patent US20120082658A1, “Methods for the Treatment of Allergic Diseases” (VentiRx Pharmaceuticals, Inc., priority 2010, published 2012).

Biological target: T1, TLR3 (Homo sapiens, UniProt O15455)
T1 construct: expressed in transfected cells; host or cells: HEK293
T1 sequence (O15455 24-904): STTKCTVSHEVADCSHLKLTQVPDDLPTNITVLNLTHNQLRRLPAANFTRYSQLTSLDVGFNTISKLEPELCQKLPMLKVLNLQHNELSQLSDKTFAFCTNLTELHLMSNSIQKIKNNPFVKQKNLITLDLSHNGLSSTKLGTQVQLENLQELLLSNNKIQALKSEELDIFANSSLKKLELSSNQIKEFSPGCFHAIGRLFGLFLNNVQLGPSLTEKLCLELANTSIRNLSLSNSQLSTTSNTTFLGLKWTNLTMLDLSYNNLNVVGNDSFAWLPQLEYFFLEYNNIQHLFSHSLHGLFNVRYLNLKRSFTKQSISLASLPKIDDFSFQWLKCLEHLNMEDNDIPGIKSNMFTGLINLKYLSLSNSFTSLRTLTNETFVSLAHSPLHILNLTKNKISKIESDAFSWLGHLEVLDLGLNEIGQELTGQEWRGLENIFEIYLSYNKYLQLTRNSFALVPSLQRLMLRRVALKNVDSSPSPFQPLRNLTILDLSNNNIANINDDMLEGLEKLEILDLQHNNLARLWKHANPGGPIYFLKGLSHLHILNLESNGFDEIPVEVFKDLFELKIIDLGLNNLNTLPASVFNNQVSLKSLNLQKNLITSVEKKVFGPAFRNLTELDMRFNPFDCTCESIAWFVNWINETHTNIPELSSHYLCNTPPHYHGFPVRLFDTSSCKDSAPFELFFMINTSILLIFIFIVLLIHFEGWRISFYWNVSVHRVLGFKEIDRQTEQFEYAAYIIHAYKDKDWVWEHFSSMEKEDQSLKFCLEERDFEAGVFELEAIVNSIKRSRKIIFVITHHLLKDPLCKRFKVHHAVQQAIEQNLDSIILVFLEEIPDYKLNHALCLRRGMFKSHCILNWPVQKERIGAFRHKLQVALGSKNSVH
Test: HEK293 cells transfected with human TLR3, NF-κB driven reporter
Type: cell-based
Conditions: concentration up to 25 uM
Protocol: FIG. 8 is two graphs depicting the potency and selectivity of VTX-378 for TLR8. The half-maximal effective concentration (EC50) for VTX-378 activation of TLR8 and TLR7 was assessed in peripheral blood mononuclear cells (PBMCs) by the amount of secreted TNFα (A) and by the activity of NF-κB (B) from 15 healthy donors and also in HEK293 cells transfected with various human TLRs.
Preclinical studies were performed with VTX-378, the active pharmaceutical ingredient in VTX-1463. The specificity of VTX-378 for human TLR8 relative to other TLRs was assessed in transfected Human Embryonic Kidney 293 (HEK293) cells engineered to express individual TLRs (2-9) via transfection, and assessed using an NF-κB driven reporter system. […] The pharmacologic effects of VTX-378 were characterized in vitro using isolated human peripheral blood mononuclear cells (PBMCs).

activity on TLR3: no detectable activity
Structure (SMILES): CCCN(CCC)C(=O)C1=Cc2ccc(-c3ccc(C(=O)N4CCCC4)cc3)cc2N=C(N)C1 [VTX-378]
